Biological target: DGKα (Homo sapiens (Human), UniProt P23743)
Assay: Human DGKα kinase activity inhibition assay (ADP-Glo)
Type: biochemical
Conditions: recombinant full-length human DGKα, 55 μM ATP, 7 μM 1,2-dioleoyl-sn-glycerol, read-out: IC50 values of examples in in vitro human DGKa kinase activity inhibition assays
Procedure, shortened: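 Activity was measured as ADP production, detected by luciferase luminescence after removal of unused ATP. The enzyme was baculovirus-expressed full-length human DGKα with a C-terminal FLAG tag. The substrate was 1,2-dioleoyl-sn-glycerol in detergent micelles, and compounds came from 100× DMSO solutions.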

Sequence of DGKα (P23743 other isoform, or with tags, fused parts or gaps): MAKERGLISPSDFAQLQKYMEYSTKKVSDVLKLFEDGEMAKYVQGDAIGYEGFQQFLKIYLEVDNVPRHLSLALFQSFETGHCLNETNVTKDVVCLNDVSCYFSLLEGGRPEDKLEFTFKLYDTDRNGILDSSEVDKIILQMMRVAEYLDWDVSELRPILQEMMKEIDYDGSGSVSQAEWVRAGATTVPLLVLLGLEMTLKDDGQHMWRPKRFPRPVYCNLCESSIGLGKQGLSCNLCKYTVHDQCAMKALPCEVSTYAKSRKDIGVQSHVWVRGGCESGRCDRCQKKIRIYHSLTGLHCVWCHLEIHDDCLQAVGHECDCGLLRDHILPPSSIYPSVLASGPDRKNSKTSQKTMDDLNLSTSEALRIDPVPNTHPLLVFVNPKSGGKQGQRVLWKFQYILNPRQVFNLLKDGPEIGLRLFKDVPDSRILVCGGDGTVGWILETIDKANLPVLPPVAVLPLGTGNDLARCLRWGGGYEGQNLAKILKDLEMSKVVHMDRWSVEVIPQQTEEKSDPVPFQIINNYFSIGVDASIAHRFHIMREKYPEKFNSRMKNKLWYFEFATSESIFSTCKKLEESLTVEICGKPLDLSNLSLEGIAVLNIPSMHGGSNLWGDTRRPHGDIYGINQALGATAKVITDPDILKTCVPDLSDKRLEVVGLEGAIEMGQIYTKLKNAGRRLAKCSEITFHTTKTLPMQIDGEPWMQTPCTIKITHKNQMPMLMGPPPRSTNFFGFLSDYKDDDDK

Row | SMILES | IC50
1 | Cc1ccc2oc(C3CCN(c4c(C#N)c(=O)n(C)c5cc(N(C)CC#N)ccc45)CC3)nc2c1 [Example 401, 7-[(cyanomethyl)(methyl)amino]-1-methyl-4-[4-(5-methyl-1,3-benzoxazol-2-yl)piperidin-1-yl]-2-oxo-1,2-dihydroquinoline-3-carbonitrile] | 0.8 nM
2 | Cc1ccc2oc(C3CCN(c4c(C(N)=O)c(=O)n(C)c5cc(OC6CCOC6)c(C6(C(F)(F)F)CC6)cc45)CC3)nc2c1 (racemic) [Example 518, (rac)-1-methyl-4-[4-(5-methyl-1,3-benzoxazol-2-yl)piperidin-1-yl]-2-oxo-7-[(oxolan-3-yl)oxy]-6-[1-(trifluoromethyl)cyclopropyl]-1,2-dihydroquinoline-3-carboxamide] | 596 nM
3 | COc1cc2c(cc1Br)c(N1CCC(F)(c3nc4cc(C)ccc4o3)CC1)c(C#N)c(=O)n2C [Example 420, 6-bromo-4-[4-fluoro-4-(5-methyl-1,3-benzoxazol-2-yl)piperidin-1-yl]-7-methoxy-1-methyl-2-oxo-1,2-dihydroquinoline-3-carbonitrile] | 0.6 nM
4 | Cc1ccc2oc(C3CCN(c4c(C#N)c(=O)n(C)c5cc(Br)ccc45)CC3)nc2c1 [Example 281, 7-bromo-1-methyl-4-[4-(5-methyl-1,3-benzoxazol-2-yl)piperidin-1-yl]-2-oxo-1,2-dihydroquinoline-3-carbonitrile] | 8.9 nM
5 | Cn1c(=O)oc2cc(C3CCN(c4c(C#N)c(=O)n(C)c5ccccc45)CC3)ccc21 [Example 362, 1-methyl-4-[4-(3-methyl-2-oxo-2,3-dihydro-1,3-benzoxazol-6-yl)piperidin-1-yl]-2-oxo-1,2-dihydroquinoline-3-carbonitrile] | 106 nM
6 | Cc1ccc2oc(C3CCN(c4c(C#N)c(=O)n(C)c5cc(N(C)CCO)c(C)cc45)CC3)nc2c1 [Example 551, 7-[(2-hydroxyethyl)(methyl)amino]-1,6-dimethyl-4-[4-(5-methyl-1,3-benzoxazol-2-yl)piperidin-1-yl]-2-oxo-1,2-dihydroquinoline-3-carbonitrile] | 0.1 nM
7 | Cn1c(=O)c(C#N)c(N2CCC(C)(c3nc4ccccc4o3)CC2)c2ccc(F)cc21 [Example 235, 4-[4-(1,3-benzoxazol-2-yl)-4-methylpiperidin-1-yl]-7-fluoro-1-methyl-2-oxo-1,2-dihydroquinoline-3-carbonitrile] | 2.9 nM
8 | CC(=O)c1ccc(C2(C)CCN(c3c(C#N)c(=O)n(C)c4ccccc34)CC2)cc1 [Example 335, 4-[4-(4-acetylphenyl)-4-methylpiperidin-1-yl]-1-methyl-2-oxo-1,2-dihydroquinoline-3-carbonitrile] | 2.3 nM
9 | COc1ccc2c(c1)c(N1CCC(c3nc(-c4ccccc4)no3)CC1)c(C#N)c(=O)n2C [Example 437, 6-methoxy-1-methyl-2-oxo-4-[4-(3-phenyl-1,2,4-oxadiazol-5-yl)piperidin-1-yl]-1,2-dihydroquinoline-3-carbonitrile] | 27 nM
10 | Cc1ccc2oc(C3(C)CCN(c4c(C#N)c(=O)n(C)c5ccc(S(C)(=O)=O)cc45)CC3)nc2c1 [Example 182, 6-(methanesulfonyl)-1-methyl-4-[4-methyl-4-(5-methyl-1,3-benzoxazol-2-yl)piperidin-1-yl]-2-oxo-1,2-dihydroquinoline-3-carbonitrile] | 47 nM
11 | COc1ccc(C2CCN(c3c(C#N)c(=O)n(C)c4cc(C)ccc34)CC2)cc1 [Example 91, 4-[4-(4-methoxyphenyl)piperidin-1-yl]-1,7-dimethyl-2-oxo-1,2-dihydroquinoline-3-carbonitrile] | 3.1 nM
12 | Cc1cc2c(N3CCC(c4ccn(-c5ccccc5C)n4)CC3)c(C#N)c(=O)n(C)c2cc1Br [Example 560, 7-bromo-1,6-dimethyl-4-{4-[1-(2-methylphenyl)-1H-pyrazol-3-yl]piperidin-1-yl}-2-oxo-1,2-dihydroquinoline-3-carbonitrile] | 105 nM
13 | Cn1c(=O)c(C#N)c(N2CCC(c3ccn(-c4cccc(Cl)c4)n3)CC2)c2ccccc21 [Example 368, 4-{4-[1-(3-chlorophenyl)-1H-pyrazol-3-yl]piperidin-1-yl}-1-methyl-2-oxo-1,2-dihydroquinoline-3-carbonitrile] | 13 nM
14 | COc1cc2c(cc1Cl)c(N1CCC(c3nc4cc(C)ccc4o3)CC1)c(C#N)c(=O)n2C [Example 566, 6-chloro-7-methoxy-1-methyl-4-[4-(5-methyl-1,3-benzoxazol-2-yl)piperidin-1-yl]-2-oxo-1,2-dihydroquinoline-3-carbonitrile] | 0.3 nM
15 | Cn1c(=O)c(C#N)c(N2CCC[C@H](c3ccccc3)CC2)c2cccc(F)c21 [Example 328, 8-fluoro-1-methyl-2-oxo-4-[(4S)-4-phenylazepan-1-yl]-1,2-dihydroquinoline-3-carbonitrile] | 144 nM
16 | Cn1c(=O)c(C#N)c(N2CCC(c3nc(-c4cccnc4)no3)CC2)c2ccccc21 [Example 370, 1-methyl-2-oxo-4-{4-[3-(pyridin-3-yl)-1,2,4-oxadiazol-5-yl]piperidin-1-yl}-1,2-dihydroquinoline-3-carbonitrile] | 158 nM

Row | SMILES | IC50
17 | COc1ccc2c(c1)c(N1CCC(C)(c3nc4ccc(C)cc4o3)CC1)c(C#N)c(=O)n2C [Example 191, 6-methoxy-1-methyl-4-[4-methyl-4-(6-methyl-1,3-benzoxazol-2-yl)piperidin-1-yl]-2-oxo-1,2-dihydroquinoline-3-carbonitrile] | 7 nM
18 | COc1ccc2c(c1)c(N1CCC(c3nc(-c4ccccc4C)no3)CC1)c(C#N)c(=O)n2C [Example 438, 6-methoxy-1-methyl-4-{4-[3-(2-methylphenyl)-1,2,4-oxadiazol-5-yl]piperidin-1-yl}-2-oxo-1,2-dihydroquinoline-3-carbonitrile] | 31 nM
19 | Cc1ccc2oc(C3(F)CCN(c4c(C(N)=O)c(=O)n(C)c5cc(OC6CCOC6)ccc45)CC3)nc2c1 (centres unmarked) [Example 509, 4-[4-fluoro-4-(5-methyl-1,3-benzoxazol-2-yl)piperidin-1-yl]-1-methyl-2-oxo-7-[(oxolan-3-yl)oxy]-1,2-dihydroquinoline-3-carboxamide] | 2 nM
20 | COc1cccc(-c2csc(C3CCN(c4c(C#N)c(=O)n(C)c5ccccc45)CC3)n2)c1 [Example 372, 4-{4-[4-(3-methoxyphenyl)-1,3-thiazol-2-yl]piperidin-1-yl}-1-methyl-2-oxo-1,2-dihydroquinoline-3-carbonitrile] | 14 nM
21 | COc1ccc(-c2noc(C3CCN(c4c(C#N)c(=O)n(C)c5ccccc45)CC3)n2)cc1 [Example 349, 4-{4-[3-(4-methoxyphenyl)-1,2,4-oxadiazol-5-yl]piperidin-1-yl}-1-methyl-2-oxo-1,2-dihydroquinoline-3-carbonitrile] | 15 nM
22 | Cn1ccc2cc(C3CCN(c4c(C#N)c(=O)n(C)c5ccccc45)CC3)ccc21 [Example 50, 1-methyl-4-[4-(1-methyl-1H-indol-5-yl)piperidin-1-yl]-2-oxo-1,2-dihydroquinoline-3-carbonitrile] | 8.3 nM
23 | CC(C)c1ccc(C2CCN(c3c(C#N)c(=O)n(C)c4ccccc34)CC2)cc1 [Example 47, 1-methyl-2-oxo-4-{4-[4-(propan-2-yl)phenyl]piperidin-1-yl}-1,2-dihydroquinoline-3-carbonitrile] | 3 nM
24 | Cc1ccc2c(N3CCC(c4nc5ccccc5o4)CC3)c(C(N)=O)c(=O)n(C)c2c1 [Example 314, 4-[4-(1,3-benzoxazol-2-yl)piperidin-1-yl]-1,7-dimethyl-2-oxo-1,2-dihydroquinoline-3-carboxamide] | 1.7 nM
25 | Cn1c(=O)c(C#N)c(N2CCC(C)(c3nc4ccccc4o3)CC2)c2cccc(Br)c21 [Example 156, 4-[4-(1,3-benzoxazol-2-yl)-4-methylpiperidin-1-yl]-8-bromo-1-methyl-2-oxo-1,2-dihydroquinoline-3-carbonitrile] | 182 nM
26 | Cn1c(=O)c(C#N)c(N2CCC(c3ccc(Oc4ccccc4)cc3)CC2)c2ccccc21 [Example 56, 1-methyl-2-oxo-4-[4-(4-phenoxyphenyl)piperidin-1-yl]-1,2-dihydroquinoline-3-carbonitrile] | 17 nM
27 | Cn1c(=O)c(C(N)=O)c(N2CCC(c3nc4ccccc4o3)CC2)c2ccc(Cl)cc21 [Example 300, 4-[4-(1,3-benzoxazol-2-yl)piperidin-1-yl]-7-chloro-1-methyl-2-oxo-1,2-dihydroquinoline-3-carboxamide] | 1.2 nM
28 | Cc1ccc2oc(C3CCN(c4c(C(N)=O)c(=O)n(C)c5cc(N(C)C6COC6)ccc45)CC3)nc2c1 [Example 494, 1-methyl-4-[4-(5-methyl-1,3-benzoxazol-2-yl)piperidin-1-yl]-7-[methyl(oxetan-3-yl)amino]-2-oxo-1,2-dihydroquinoline-3-carboxamide] | 6.2 nM
29 | Cc1ccc2oc(C3CCN(c4c(C#N)c(=O)n(C)c5cc(OCC6CO6)ccc45)CC3)nc2c1 (centres unmarked) [Example 384, 1-methyl-4-[4-(5-methyl-1,3-benzoxazol-2-yl)piperidin-1-yl]-7-{[oxiran-2-yl]methoxy}-2-oxo-1,2-dihydroquinoline-3-carbonitrile] | 1.8 nM
30 | COc1ccc(C2CCN(c3c(C#N)c(=O)n(C)c4cc(C5=CCOCC5)ccc34)CC2)cc1 [Example 100, 7-(3,6-dihydro-2H-pyran-4-yl)-4-[4-(4-methoxyphenyl)piperidin-1-yl]-1-methyl-2-oxo-1,2-dihydroquinoline-3-carbonitrile] | 2.3 nM
31 | Cn1c(=O)c(C#N)c(N2CCC(O)(c3ccc(Cl)cc3)CC2)c2ccccc21 [Example 151, 4-[4-(4-chlorophenyl)-4-hydroxypiperidin-1-yl]-1-methyl-2-oxo-1,2-dihydroquinoline-3-carbonitrile] | 486 nM
32 | Cn1c(=O)c(C#N)c(N2CCC(c3cccc(C4CC4)c3)CC2)c2ccccc21 [Example 45, 4-[4-(3-cyclopropylphenyl)piperidin-1-yl]-1-methyl-2-oxo-1,2-dihydroquinoline-3-carbonitrile] | 2.1 nM
